Assay results published in US20040009568A1, “Catalytic domains of the human hepatocyte growth factor receptor tyrosine kinase, and materials and methods for identification of inhibitors thereof” (priority 2001, published 2004).

How the values were obtained:
Assay type in all cases: biochemical
unphosphorylated HGFR = biological target: T1, unphosphorylated HGFR (Homo sapiens, UniProt P08581); assay: Coupled enzymatic (PK/LDH) kinase assay, unphosphorylated HGFR
T1 construct: The cDNA corresponding to residues 1051-1349 of the HGFR kinase catalytic domain (HGFRkd) was cloned into a pFastBac plasmid; added N-terminal methionine (start codon of the NcoI site) (N); made in house; host or cells: Sf9 insect cells, recombinant baculovirus (pFastBac-NcoI)
Experimental: (§1) A coupled enzymatic assay format was used to measure both HGFR and phospho-HGFR(PHGFR) activities. The kinase-catalyzed production of ADP from ATP that accompanies phosphate transfer to the random copolymer poly(Glu4Tyr) or peptide substrate was coupled to the oxidation of NADH through the activities of pyruvate kinase (PK) and lactate dehydrogenase (LDH). NADH conversion to NAD^+ was monitored by the decrease in absorbance at 340 nm (ε=6.22 cm^−1 mM^−1) using a Beckman DU650 spectrophotometer. A typical reaction solution contained 1 mM phosphoenolpyruvate, 0.24 mM NADH, 40 mM MgCl2, 5 mM DTT, poly(Glu4Tyr), ATP, 15 units/mL PK, 15 units/mL LDH in 100 mM HEPES, pH 7.5. ATP was varied from 0.5 to 2000 μM and poly(Glu4Tyr) was varied from 0.5 to 20 mg/mL. In addition, Met2 peptide (0-4 mM) could be used instead of poly(Glu4Tyr). Assays were initiated with the addition of 12 nM phosphorylated HGFR or 125 nM unphosphorylated HGFR. Inhibition studies were performed as described above with following exceptions: 0.075 mM ATP (PHGFR) and 0.375 mM ATP (HGFR). Data was fit to the equation for competitive inhibition by the method of nonlinear least squares (KaleidaGraph).
The kinetic consequences of the autophosphorylation were investigated. HGFR and pHGFR activities were evaluated in two distinct and complementing assay formats. […] NADH conversion to NAD^+ was monitored spectrophotometrically by the decrease in absorbance at 340 nm (ε=6.22 cm^−1 mM^−1). […]
(§2) Inhibition of HGFR and pHGFR were monitored in two distinct assay formats to insure valid results. The coupled, enzymatic format (CE) was a continuous assay that measured ADP production through the sequential action of two standard coupling enzymes (pyruvate kinase and lactate dehydrogenase). The radioactive assay format was a discontinuous assay that measured phospho-protein production directly. […]
(§3) The coupled enzymatic analysis of HGFR processing of ATP and poly(Glu4Tyr) were measured at 37° C. Variable substrate concentration was measured at a fixed saturating concentration of the other substrate.

[1] = biological target: T2, phosphorylated HGFR (pHGFR) (Homo sapiens, UniProt P08581); assay: Coupled enzymatic (PK/LDH) kinase assay, phospho-HGFR
T2 construct: The cDNA corresponding to residues 1051-1349 of the HGFR kinase catalytic domain (HGFRkd) was cloned into a pFastBac plasmid; added N-terminal methionine (start codon of the NcoI site) (N); made in house; host or cells: Sf9 insect cells, recombinant baculovirus; then autophosphorylated in vitro with MgATP
Experimental: as §1
(§4) The kinetic consequences of the autophosphorylation were investigated. HGFR and pHGFR activities were evaluated in two distinct and complementing assay formats. […] A coupled, enzymatic assay format (CE format) was used to measure ADP production. HGFR-catalyzed production of ADP from ATP that accompanied phosphate transfer to the random copolymer poly(Glu4Tyr) was coupled to the oxidation of NADH through the sequential activities of pyruvate kinase (PK) and lactate dehydrogenase (LDH). NADH conversion to NAD^+ was monitored spectrophotometrically by the decrease in absorbance at 340 nm (ε=6.22 cm^−1 mM^−1). A second assay format was used to measure the production of [^32P]-labeled phospho-protein (dephosphorylated α-casein). Dephosphorylated α-casein is the substrate for HGFR […] in a glass fiber filterplate assay format. […]
as §2, §3

pHGFR = biological target: T3, pHGFR (Homo sapiens, UniProt P08581); assay: Radioactive glass fiber filterplate assay (32P transfer to dephosphorylated α-casein)
T3 construct: The cDNA corresponding to residues 1051-1349 of the HGFR kinase catalytic domain (HGFRkd) was cloned into a pFastBac plasmid; added N-terminal methionine (start codon of the NcoI site) (N); made in house; host or cells: Sf9 insect cells, recombinant baculovirus; then autophosphorylated in vitro with MgATP
Experimental: as §4, §2

[2] = coupled enzymatic analysis, 37° C., other substrate fixed saturating

T1 sequence (P08581 1051-1349): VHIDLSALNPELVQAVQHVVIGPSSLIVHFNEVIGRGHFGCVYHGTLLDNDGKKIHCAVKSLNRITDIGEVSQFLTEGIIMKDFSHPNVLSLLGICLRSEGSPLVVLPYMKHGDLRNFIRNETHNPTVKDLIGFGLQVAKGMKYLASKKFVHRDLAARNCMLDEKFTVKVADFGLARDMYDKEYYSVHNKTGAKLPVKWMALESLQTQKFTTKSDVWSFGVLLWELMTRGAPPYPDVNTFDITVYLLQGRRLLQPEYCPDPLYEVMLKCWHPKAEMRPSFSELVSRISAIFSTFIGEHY
T2 sequence (P08581 1051-1349): as above
T3 sequence (P08581 1051-1349): as above

SMILES	Ki (unphosphorylated HGFR; coupled enzymatic format, 0.375 mM ATP, data fit to equation for competitive inhibition, read-out: inhibition (HGFR/CE format))	mechanism of pHGFR inhibition (double reciprocal analysis) ([1]; CE assay, ATP 25-3200 μM, Compound 1 0-1200 nM, pHGFR 25 nM, Met2 peptide 0.5 mM)	Ki ([1]; coupled enzymatic format, 0.075 mM ATP, data fit to equation for competitive inhibition, read-out: inhibition (pHGFR/CE format))	Ki (pHGFR; radioactive filterplate format, 27.5 nM pHGFR, 0.075 mM ATP, RT, 30 min, read-out: inhibition (pHGFR/radioactive format))	Km (unphosphorylated HGFR; [2])	kcat, Unphosphorylated HGFR (unphosphorylated HGFR; [2])	kcat, Phospho-HGFR [1, 2]	Km ([1]; coupled enzymatic analysis, 37° C., other substrate fixed saturating, read-out: Km, Phospho-HGFR)	Km (pHGFR; radioactive filtermate format, dephosphorylated α-casein phosphoacceptor, read-out: Km for ATP (radioactive filtermate format))
O=C1Nc2ccc3ncsc3c2/C1=C/Nc1ccc(S(=O)(=O)NCCOCCO)cc1 [Compound 1, 4-[[(Z)-(6,7-dihydro-7-oxo-8H-pyrrolo[2,3-g]benzothiazol-8-ylidene)methyl]amino]-N-[2-(2-hydroxyethoxy)ethyl]-(9CI)]	500 ± 30 nM	ATP-competitive inhibitor	381 ± 19 nM	128 ± 17 nM					
Nc1ncnc2c1ncn2[C@@H]1O[C@H](COP(=O)(O)OP(=O)([O-])OP(=O)([O-])O)[C@@H](O)[C@H]1O.[Mg+2] [MgATP, ATP]					373 ± 61 µM	1.02 ± 0.013 s⁻¹	31.3 ± 2.1 s⁻¹	73.7 ± 2.8 µM	78.6 ± 12.1 µM
